In publication PMC10470319 (iScience, 2023):
“Also recorded” adds a separate entry of the source.

What was measured:
[1] = target: T1, SARS-CoV-2 Mpro (Severe acute respiratory syndrome coronavirus 2, UniProt P0DTD1); assay type: biochemical
[2] = target: T1, SARS-CoV-2 Mpro; assay type: biochemical; remark: listed apart in the source
[3] = target: T1, SARS-CoV-2 Mpro; experiment: biochemical; conditions: for inhibition of Mpro in the initial screen: 17 μM
[4] = test system: SARS-CoV-2; assay type: cell-based
[5] = test system: SARS-CoV-2 infection; conditions: in vivo; cited from earlier work
[6] = test system: Vero E6 cells
[7] = test system: SARS-CoV-2; conditions: read-out: IC50 for inhibition of SARS-CoV-2 replication; cited from earlier work
[8] = test system: Calu-3 cells; conditions: cited from earlier work

Structure (SMILES) | inhibition of Mpro activity, mass spectrometry assay [1] | reversibility of Mpro inhibition on dilution [2] | inhibition of Mpro in the initial screen [3] | inhibition of SARS-CoV-2 replication (in words) [4] | further results
O=c1c(-c2c(O)cc(O)c3c(=O)cc(-c4ccc(O)cc4)oc23)c(-c2ccc(O)cc2)oc2cc(O)cc(O)c12 [3,8'-Biapigenin] | completely inhibited | – | – | – | –
O=c1cc(-c2ccc(O)c(-c3c(O)cc(O)c4c(=O)cc(-c5ccc(O)cc5)oc34)c2)oc2cc(O)cc(O)c12 [Amentoflavone] | completely inhibited | reversible | – | – | –
O=c1cc(-c2ccccc2)oc2cc(O)c(O)c(O)c12 [Baicalein, reference compound] | – | reversible | showed inhibition | inhibited SARS-CoV-2 infection | body weight after SARS-CoV-2 infection [5]: prevented reduction in body weight; lung injury resulting from SARS-CoV-2 infection [5]: decreased lung injury
O=c1c(O)c(-c2cc(O)c(O)c(O)c2)oc2cc(O)cc(O)c12 [Myricetin, reference compound] | – | irreversible | showed inhibition | inhibits SARS-CoV-2 replication | –
O=c1cc(-c2ccc(O)cc2)oc2cc(O)cc(O)c12 [apigenin] | – | reversible | – | slightly better than baicalein at 50 μM; also recorded: inhibits viral replication at concentrations that are not toxic | IC50 [3]: 20 ± 9 µM; toxicity in cell culture [6]: some toxicity; IC50 [7]: 5.11 ± 0.26 µM; CC50 [8]: 302 ± 15 µM
O=C1C[C@@H](c2ccccc2)Oc2cc(O)cc(O)c21 [pinocembrin] | – | – | – | – | inhibition of Mpro (in words) [3]: relatively poor inhibition
